In US20150359798A1, “PIPERAZINYL DERIVATIVE REDUCES HIGH-FAT DIET-INDUCED ACCUMULATION OF FAT IN THE LIVERS, […]” (priority 2011, published 2015):

Columns and labels:
eNOS [1] = assay: IHC staining of eNOS in epididymal fat pads; assay type: in vivo, mice; settings: protection, 2.5 mg/kg/day
Protocol: (§1) For IHC of MMP-9/TNFα, HSL/p-HSL/ATGL and eNOS/IL-10, antigen retrieval of de-paraffinated sections was performed in Dako target retrieval solution, pH 9.0, in a vegetable steamer followed by the quenching of endogenous peroxidase activity with 3.0% H2O2 in methanol. Sections were then incubated with specific primary antibodies overnight at 4° C. in a humidified chamber. The antibodies used included rabbit polyclonal anti-eNOS (1:50 dilution) (Abcam, Cambridge, UK) or rabbit monoclonal anti-cleaved caspase-3 (1:50 dilution) (Cell Signaling, USA). The sections were then examined using a DAKO REAL EnVision™ Detection System kit (DAKO, Carpinteria, Calif.) and counterstained with hematoxylin. Images were obtained through a Nikon Eclipse TE200-S microscope.

PKA = assay: Hepatic PKA expression (14-week experiment); assay type: in vivo, mice; settings: drinking KMUP-1; protection and treatment groups
eNOS [2] = assay: Table 3 eNOS (% of control); assay type: cell-based; settings: control group = 100 (%)
p-HSL [3] = assay: IHC staining of p-HSL in steatohepatitis liver; assay type: in vivo, mice; settings: treatment and protection groups
Protocol: (§2) In the 14-week experiment, mice were fed a HFD from week 1 to week 14. During the 3 month experiments, KMUP-1 HCl (2.5 mg) was added to 200 ml tap water and) and drink for 14 weeks or for the last 6 weeks on mice or obese mice fed HFD, separately. 5 mice had free access to drinking water from week 1 to week 14 (protective group) or from week 8 to week 14 (treatment group). Tap water was used to normalize mineral nutrition (Scheme A).
as §1

PPAR-γ = assay: Table 3 PPAR-γ (% of control); assay type: cell-based; settings: control group = 100 (%)
eNOS [4] = assay: eNOS expression in HepG2 cells; assay type: cell-based
Protocol: (§3) HepG2 cells were treated with various concentrations of drugs for 24 hours. Reactions were terminated by washing twice with cold PBS, and the cells were then harvested, Proteins in the whole-cell lysate were homogenized in an ice-cold lysis buffer and a protease inhibitor (Sigma-Aldrich, St. Louis, Mo., U.S.A.). The homogenate was centrifuged at 90, 000 g for 15 minutes at 4° C., and supernatant was recovered as the total cellular protein. Cytosolic and membrane fractions of HepG2 cells were prepared using a. CNM (Cytosol Nuclear Membrane) compartment protein extraction kit (BioChain Institute Inc., Hayward, Calif., U.S.A.) according to the manufacturer's instructions. All of the fractionated protein solutions were stored at −80° C. until analysis. To measure the expression levels of proteins by drugs, the total cell protein was extracted after incubation with treatments for 24 hours and then Western blotting analysis was performed as described previously.

HMG CoA reductase = HMG CoA reductase expression in HepG2 cells (Western blotting); assay type: cell-based
Protocol: The HepG2 hepatoma cell line was purchased from the American Type Culture Collection (ATCC; Manassas, Va., U.S.A.). Cells were cultured in DMEM. The culture media was supplemented with 5% heat-Inactivated FBS, penicillin (100 U/mL) and streptomycin (100 μg/mL). Cells were grown in a humidified atmosphere containing 5% CO2 at 37° C., in which the oxygen tension in the incubator was held at 140 mmHg (20% O2, v/v; normoxic conditions).
as §3

ATGL = assay: IHC staining of ATGL in steatohepatitis liver; assay type: in vivo, mice; settings: more prominent in protection than treatment groups
Protocol: as §2, §1

HSL = assay: IHC staining of HSL in steatohepatitis liver; assay type: in vivo, mice; settings: after treatment or protection
Protocol: as §2, §1

PPARγ = PPARγ expression in liver of HFD mice (8 weeks); assay type: in vivo; settings: animals treated with HFD
Protocol: (§4) In the 8 week experiment, C57BL/6J male mice (21-22 g), after fasting, were fed a HFD as a model of hyperlipidemia for 8 weeks. During the 2 month experiments, mice fasted for one night before the experiment was changed from a standard diet (STD) to a HFD and then the mice were randomly divided into 5 groups, including 2 control and 3 treatment groups. Six mice were used in each group. […] Liver from the protection group supplemented with KMUP-1 HCl (1 mg/kg/day) were used to determine the HMG CoA reductase expression.
(§5) For the expression of SR-B1, HMGR, PPARγ and ROCK isolated liver tissues were cut into small chips and placed into an extraction buffer (Tris 10 mM, pH 7.0, NaCl 140 mM, PMSF 2 mM, DTT 5 mM, NP-40 0.5%, pepstatin A 0.05 mM and leupeptin 0.2 mM) for hepatic protein extraction, and centrifuged at 20,000 g for 30 minutes. The obtained protein extract was boiled to a ratio of 4:1 with a sample buffer (Tris 100 mM, pH 6.8, glycerol 20%, SDS 4% and bromophenol blue 0.2%). Electrophoresis was performed using 10% SDS-polyacrylamide gel (1 hour, 100 V, 40 mA, 20 μg protein per lane).
(§6) Separated proteins, after 3 repeated centrifugations to discard up-layer tissue lipid inpurity, were transferred to PVDF membranes treated with 5% fat-free milk powder to block the nonspecific IgGs (90 minutes, 100 V) and incubated for 1 hour with specific protein antibody. […]

PKG = PKG expression and immunoreactivity in HepG2 cells; assay type: cell-based
MMP-9 = assay: IHC staining of MMP-9 in steatohepatitis liver; assay type: in vivo, mice; settings: treatment and protection groups
Protocol: as §2, §1

TNF-α = assay: IHC staining of TNF-α in epididymal fat pads; assay type: in vivo, mice; settings: protection, 2.5 mg/kg/day
Protocol: as §1

LXRα = LXRα expression in HepG2 cells; assay type: cell-based; settings: HepG2, 10^−9-10^−5 M
Protocol: HepG2 cells were treated with various concentrations of drugs for 24 hours. […] All of the fractionated protein solutions were stored at −80° C. until analysis. To measure the expression levels of proteins by drugs, the total cell protein was extracted after incubation with treatments for 24 hours and then Western blotting analysis was performed as described previously.

ROCK II = ROCK II expression in liver of HFD mice (8 weeks); assay type: in vivo; settings: animals treated with HFD
Protocol: as §4, §5, §6

p-HSL [5] = assay: Table 3 p-HSL (% of control); assay type: cell-based; settings: control group = 100 (%)
IL-10 = assay: IHC staining of IL-10 in epididymal fat pads; assay type: in vivo, mice; settings: protection, 2.5 mg/kg/day
Protocol: as §1

Compound: Cn1c(=O)c2c(ncn2CCN2CCN(c3ccccc3Cl)CC2)n(C)c1=O [KMUP-1, 7-[2-[4-(2-chlorophenyl)piperazinyl]ethyl]-1,3-dimethyl xanthine]
- IHC staining of eNOS in epididymal fat pads (eNOS [1]): inhibited
- hepatic PKA expression (PKA): promote
- eNOS (eNOS [2]; 0.1 μM): 121.6 ± 16.5%
- eNOS (eNOS [2]; 1.0 μM): 132.7 ± 15.2%
- eNOS (eNOS [2]; 10 μM): 138.9 ± 15.2%
- p-HSL (IHC, liver) (p-HSL [3]): activation
- PPAR-γ (PPAR-γ; 0.1 μM): 123.5 ± 17.3%
- PPAR-γ (PPAR-γ; 1.0 μM): 135.6 ± 14.5%
- PPAR-γ (PPAR-γ; 10 μM): 142.6 ± 15.4%
- expression of eNOS (eNOS [4]): concentration-dependently increased
- mevalonate (100 μM)-inhibited HMG CoA reductase expression (HMG CoA reductase; HepG2, 10^−5M): prevented
- HMG CoA reductase expression (HMG CoA reductase; HepG2, serum/vehicle-containing medium, 10^−9-10^−5M, 24 hours): concentration-dependently increased
- ATGL lipolysis (IHC, liver) (ATGL): induced
- HSL (IHC, liver) (HSL): partly increased
- PPARγ in liver (PPARγ): activated
- expression of PKG (PKG; 10, 20, 40 µM, in the presence of LDL (500 μg/mL)): increased
- PKG immunoreactivity (PKG; data not shown): not significantly affected
- antibody response to MMP-9 (IHC, liver) (MMP-9): shaded by the treatment and almost disappeared in the protection group
- IHC staining of TNF-α in epididymal fat pads (TNF-α): inhibited
- LXRα expression (LXRα): concentration-dependently increased
- ROCK II in liver (ROCK II): inactivated
- p-HSL (p-HSL [5]; 0.1 μM): 120.7 ± 15.3%
- p-HSL (p-HSL [5]; 1.0 μM): 138.6 ± 14.7%
- p-HSL (p-HSL [5]; 10 μM): 144.6 ± 12.3%
- IHC staining of IL-10 in epididymal fat pads (IL-10): increased
